Target: T1, ADRA2A (Homo sapiens, UniProt P08913)
T1 construct: purchased Promega (in-house HiBiT-GPCR construct library, NanoBRET)
T1 sequence (P08913 1-465): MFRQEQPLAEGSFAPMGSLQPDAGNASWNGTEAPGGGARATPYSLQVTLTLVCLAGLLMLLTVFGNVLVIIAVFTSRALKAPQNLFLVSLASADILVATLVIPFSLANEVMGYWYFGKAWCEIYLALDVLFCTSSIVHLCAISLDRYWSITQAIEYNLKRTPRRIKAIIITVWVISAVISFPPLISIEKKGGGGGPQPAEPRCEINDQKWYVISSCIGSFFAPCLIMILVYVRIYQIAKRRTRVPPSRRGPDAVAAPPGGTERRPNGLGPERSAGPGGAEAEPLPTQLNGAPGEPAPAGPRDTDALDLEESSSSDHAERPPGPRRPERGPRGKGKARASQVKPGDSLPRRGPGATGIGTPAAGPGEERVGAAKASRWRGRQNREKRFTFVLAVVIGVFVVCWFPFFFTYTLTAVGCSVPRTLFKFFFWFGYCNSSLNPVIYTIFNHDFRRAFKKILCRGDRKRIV
Test: NanoBRET screen HiBiT-ADRA2A in HEK293
Type: binding
Experimental: Each tracer candidate was screened across the entire library of HiBiT-GPCR constructs using NanoBRET as the detection modality. As depicted in Figure 4A, the specificity of interactions was evaluated through decrease in BRET due to competitive displacement of a bound tracer by excess parental compound. Each tracer was analyzed for binding to each HiBiT-GPCR fusion in the absence and in the presence of competing parental compound. Briefly, HEK293 cells were transfected with HiBiT-GPCR constructs diluted into promoterless DNA to reduce expression and maximize translocation to the cell surface. Each tracer candidate was then screened at concentrations of 1 μM and 0.1 μM across cells expressing these fusions. Cells were treated for 1.5 h with tracer either alone or in the presence of 20 μM competing parental compound (i.e., control). BRET was measured upon addition of purified LgBiT and subsequent complementation with HiBiT genetically fused to a GPCR. The specificity of interactions was assessed through a decrease in BRET signal due to competitive displacement of the bound tracer. To further gauge the robustness of these interactions, the fold response over the control (i.e., BRETtracer/BRETcontrol) was calculated. We chose a 1.5-fold response, which translates to ≥7-fold signal over noise as the minimal threshold required to score an interaction as positive.
HiBiT-GPCR DNA constructs were diluted in 10 mM Tris pH 8 to a final concentration of 0.01 μg/μL, arrayed in 96-well plates and stored at −20 °C. For transfection, HEK293 cells were suspended in Opti-MEM (without phenol red) supplemented with 2% fetal bovine serum (Seradigm) and 100 units/mL penicillin–streptomycin (Gibco) at a final concentration of 220,000 cells/mL and dispensed into white 96-well plates at 90 μL/well. Subsequent transfections and screens were carried using an Agilent Bravo Automated Liquid Handling Platform. First, the 96-well HiBiT DNA arrays were diluted 25-fold in Opti-MEM (without serum or phenol red) to a final concentration of 0.0004 μg/μL and 20 μL of the diluted DNAs were transferred into new 96-well plates. Next, promoterless carrier DNA (1 μg/μL) was diluted 25-fold (0.04 μg/μL) and then dispensed into the diluted arrays at 20 μL/well. Following brief mixing, Viafect transfection reagent (Promega) diluted 16-fold into Opti-MEM was dispensed into the plates at 40 μL/well. After mixing by pipetting, plates were incubated for 10 min on the pipetting station deck. The DNA-transfection reagent complexes were then added to plates containing cells. To facilitate the screen, 10 μL of DNA-transfection reagent complexes were added in duplicates to the top 4 and bottom 4 rows, resulting in two identical 48-well arrays per plate. Plates with transfected cells were incubated for 18–20 h at 37 °C/5% CO2. A screen of each tracer across the entire library using two different concentrations requires duplicate plates of transfected cells. Depending on the number of tracers being screened, transfections can be scaled up using the same ratios. The next day, for each tracer, four 20× screening solutions in tracer dilution buffer (Promega) were prepared: two duplicates at final concentration of 20 μM and two duplicates at a final concentration of 2 μM. […] The four resulting solutions were diluted 4-fold in Opti-MEM without serum or phenol red to generate 5× solutions (5 µM and 0.5 µM tracer +/− 100 μM competing compound). To screen the library, a BioTek MultiFlo FX liquid dispenser was used to dispense 22.5 µL of tracer solution to the top 4 rows and 22.5 µL tracer + competing compound solution to the 4 bottom rows. Plates were briefly mixed on an orbital shaker and incubated for 1.5 h at room temperature. […] Plates were briefly mixed on an orbital shaker and incubated for 15 min to allow complementation.

Compound	NanoBRET Fold Response (ADRA2A, tracer 0.1μM)	NanoBRET Fold Response (ADRA2A, tracer 1μM)	also measured
CCOC(=O)c1cc(C#N)c(N2CCC(C(=O)NS(=O)(=O)Cc3ccccc3/C=C/C(=O)NCCNC(=O)CCc3ccc4n3[B-](F)(F)[N+]3=C(c5ccc[nH]5)C=CC3=C4)CC2)nc1C [AZD1283-1-NB590]	–	–	NanoBRET Fold Response (ADRA2A, 0.1μM): 1.04; NanoBRET Fold Response (ADRA2A, 1μM): 1.13
N#CN/C(=N\CCNC(=O)c1ccc(N)cc1)NCCCOc1cccc(CN2CCCCC2)c1 [Aminopotentidine (unmodified)]	–	–	NanoBRET Fold Response (ADRA2A, other tracers/Aminopotentidine (unmodified), 0.1μM): 1.01; NanoBRET Fold Response (ADRA2A, other tracers/Aminopotentidine (unmodified), 1μM): 1.67
N#CN=C(NCCCOc1cccc(CN2CCCCC2)c1)NCCNC(=O)CCOCCOCCOCCOCCNC(=O)CCc1ccc2n1[B-](F)(F)[N+]1=C(c3ccc[nH]3)C=CC1=C2 [Aminopotentidine-2-NB590]	1.04	1.26	–
CN(C)CCC=C1c2ccccc2CCc2ccc(C(=O)NCCNC(=O)CCOCCOCCOCCOCCNC(=O)CCc3ccc4n3[B-](F)(F)[N+]3=C(c5ccc[nH]5)C=CC3=C4)cc21 [Amitriptyline-a-2-NB590]	–	–	NanoBRET Fold Response (tracer at 0.1μM): 1.03; NanoBRET Fold Response (tracer at 1μM): 1.12
CN(C)CCC=C1c2ccccc2CCc2ccc(C(=O)NCCNC(=O)CCOCCOCCOCCOCCNC(=O)CCc3ccc4n3[B-](F)(F)[N+]3=C(c5ccc[nH]5)C=CC3=C4)cc21 [Amitriptyline-b-2-NB590]	–	–	NanoBRET Fold Response (tracer at 0.1μM, listed as amitriptyline-b-2-NB590): 1.11; NanoBRET Fold Response (tracer at 1μM, listed as amitriptyline-b-2-NB590): 1.00
CN(CCC=C1c2ccccc2CCc2ccccc21)C(=O)CCOCCOCCOCCOCCNC(=O)CCc1ccc2n1[B-](F)(F)[N+]1=C(c3ccc[nH]3)C=CC1=C2 [Amitriptyline-e-2-NB590]	–	–	NanoBRET Fold Response (tracer at 1μM): 1.09
COc1ccc2c(n1)c(CCNC(C)=O)cn2CCNC(=O)CCc1ccc2n1[B-](F)(F)[N+]1=C(c3ccc[nH]3)C=CC1=C2 [Azamelatonin-1-NB590]	–	–	NanoBRET Fold Response (0.1μM tracer): 1.08; NanoBRET Fold Response (1μM tracer): 1.01
COc1ccc2[nH]c(-c3ccc(CNC(=O)CCOCCOCCOCCOCCNC(=O)CCc4ccc5n4[B-](F)(F)[N+]4=C(c6ccc[nH]6)C=CC4=C5)cc3)c(CCNC(C)=O)c2n1 [AzomelatoninICO9-2-NB590]	–	–	NanoBRET Fold Response (0.1μM tracer): 1.01; NanoBRET Fold Response (1μM tracer): 1.06
O=C(CCOCCOCCOCCOCCNC(=O)CCc1ccc2n1[B-](F)(F)[N+]1=C(c3ccc[nH]3)C=CC1=C2)NCCCN1CCN(C2=Nc3cc(Cl)ccc3Nc3ccccc32)CC1 [Clozapine-a-2-NB590]	–	–	NanoBRET Fold Response (ADRA2A, 0.1μM tracer): 1.27; NanoBRET Fold Response (ADRA2A, 1μM tracer): 1.78
O=C(CCOCCOCCOCCOCCNC(=O)CCc1ccc2n1[B-](F)(F)[N+]1=C(c3ccc[nH]3)C=CC1=C2)NCCCN1CCN(C2=Nc3ccccc3Oc3ccc(Cl)cc32)CC1 [Loxapine-a-2-NB590]	0.99	1.02	–
COc1ccccc1N1CCN(CCCCN2C(=O)c3ccc(CNC(=O)CCOCCOCCOCCOCCNC(=O)CCc4ccc5n4[B-](F)(F)[N+]4=C(c6ccc[nH]6)C=CC4=C5)cc3C2=O)CC1 [NAN-190-2-NB590]	2.17	3.08	–
COc1ccccc1N1CCN(CCCCN2C(=O)c3ccc(CNC(=O)CCOCCNC(=O)c4ccc(CNC(=O)CCc5ccc6n5[B-](F)(F)[N+]5=C(c7ccc[nH]7)C=CC5=C6)cc4)cc3C2=O)CC1 [NAN-190-3-NB590]	2.11	2.92	–
O=C(CCc1ccc2n1[B-](F)(F)[N+]1=C(c3ccc[nH]3)C=CC1=C2)NCc1ccc(C(=O)NCCOCCC(=O)N[C@@H]2CC[C@@]3(O)[C@H]4Cc5ccc(O)c6c5[C@@]3(CCN4CC3CC3)[C@H]2O6)cc1 [Naltrexone-3-NB590]	1.12	0.92	–
Cc1cc2c(s1)Nc1ccccc1N=C2N1CCN(CCCNC(=O)CCOCCOCCOCCOCCNC(=O)CCc2ccc3n2[B-](F)(F)[N+]2=C(c4ccc[nH]4)C=CC2=C3)CC1 [Olanzapine-a-2-NB590]	1.00	1.04	–
O=C(CCc1ccc2n1[B-](F)(F)[N+]1=C(c3ccc[nH]3)C=CC1=C2)NCc1ccc(C(=O)NCCOCCOCCNCC(O)COc2cccc3ccccc23)cc1 (stereo not drawn) [Propranolol-3-NB590]	–	–	NanoBRET Fold Response (ADRA2A, 0.1μM): 1.04; NanoBRET Fold Response (ADRA2A, 1μM): 1.06
O=C(CCc1ccc2n1[B-](F)(F)[N+]1=C(c3ccc[nH]3)C=CC1=C2)NCCOCCOCCNC(=O)OCCOCCN1CCN(C2=Nc3ccccc3Sc3ccccc32)CC1 [Quetiapine-a-2-NB590]	1.10	1.22	–
Cc1nc2n(c(=O)c1CCN1CCC(c3noc4cc(F)ccc34)CC1)CCCC2OC(=O)NCCOCCOCCOCCOCCNC(=O)CCc1ccc2n1[B-](F)(F)[N+]1=C(c3ccc[nH]3)C=CC1=C2 (stereo not drawn) [Risperidone-2-NB590]	1.29	2.34	–
CC(C)N(CC[C@H](c1ccccc1)c1cc(CCNC(=O)CCOCCOCCOCCOCCNC(=O)CCc2ccc3n2[B-](F)(F)[N+]2=C(c4ccc[nH]4)C=CC2=C3)ccc1O)C(C)C [Tolterodine-2-NB590]	1.00	1.02	–
CC(C)N(CC[C@H](c1ccccc1)c1cc(CCNC(=O)c2ccc(CNC(=O)CCc3ccc4n3[B-](F)(F)[N+]3=C(c5ccc[nH]5)C=CC3=C4)cc2)ccc1O)C(C)C [Tolterodine-BZ-NB590]	1.08	1.07	–
CCCn1c(=O)c2[nH]c(-c3ccc(OCC(=O)NCCNC(=O)CCOCCNC(=O)c4ccc(CNC(=O)CCc5ccc6n5[B-](F)(F)[N+]5=C(c7ccc[nH]7)C=CC5=C6)cc4)cc3)nc2n(CCC)c1=O [XAC-3-NB590]	0.97	1.11	–

Source: paper PMC8151276, “An Integrated Approach toward NanoBRET Tracers for Analysis of GPCR Ligand Engagement” (Molecules, 2021)
